Data taken from patent publication US11324698B2, “Sterically stabilized carrier for aerosol therapeutics, compositions and methods for treating the respiratory tract of a mammal” (VGSK Technologies, Inc., priority 2003, dated 2022).

What was measured:
[1] = BUD alone; cited from earlier work
sensitized mice = experiment: Preliminary dose-response study of daily nebulized BUD in sensitized mice; type: in vivo; settings: daily nebulization
Procedure: The dose of BUD chosen was based on preliminary dose-response studies with 5 to 50 μg of BUD as follows.
Each day, 5, 10, 15, 20 or 50 μg of BUD was administered via nebulization to groups of sensitized mice, and the dose-dependent effects on the inflammatory parameters were evaluated.

CCCC1O[C@@H]2C[C@H]3[C@@H]4CCC5=CC(=O)C=C[C@]5(C)[C@H]4[C@@H](O)C[C@]3(C)[C@]2(C(=O)CO)O1 (stereo partly drawn) [Daily BUD, budesonide]
effective life in the lungs [1]: no more than one day
toxicity to the spleen, liver, bone morrow or gastrointestinal tract (sensitized mice; 20 μg/ml dose of BUD, histopathologic examination): without evidence of toxicity
granulomas or abnormalities in tissues (sensitized mice; preliminary dose-response study): no granulomas or abnormalities in any of the tissues evaluated
